# Measurements published in the supplement of paper PMC10307832.
# How the values were obtained:
# Assay in all cases: relative viability (nuclei count vs DMSO), 5 days (fraction); higher = more cells survive
# Dabrafenib + OSI-027 = compound: CC(C)(C)c1nc(-c2cccc(NS(=O)(=O)c3c(F)cccc3F)c2F)c(-c2ccnc(N)n2)s1 [Dabrafenib] + COc1cccc2cc(-c3nc([C@H]4CC[C@H](C(=O)O)CC4)n4ncnc(N)c34)[nH]c12 [OSI-027] (partner 0.5 µM)
# Outline: (§1)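 Each reported value is a median over duplicate plates. It expresses relative viability: treated-well nuclei count divided by vehicle-well nuclei count. Lung cancer cell lines in 1536-well plates were dosed by pin tool a day after seeding, alone with one drug or with a fixed anchor-drug dose plus five library-drug doses (not always all listed) in √10 steps, and nuclei were counted after 5 days.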
# Dabrafenib + Linsitinib = compound: CC(C)(C)c1nc(-c2cccc(NS(=O)(=O)c3c(F)cccc3F)c2F)c(-c2ccnc(N)n2)s1 [Dabrafenib] + C[C@]1(O)C[C@@H](c2nc(-c3ccc4ccc(-c5ccccc5)nc4c3)c3c(N)nccn32)C1 [Linsitinib] (partner 1 µM)
# Outline: as §1
# Dabrafenib + Phenformin = compound: CC(C)(C)c1nc(-c2cccc(NS(=O)(=O)c3c(F)cccc3F)c2F)c(-c2ccnc(N)n2)s1 [Dabrafenib] + N=C(N)NC(=N)NCCc1ccccc1 [Phenformin] (partner 250 µM)
# Outline: as §1
# VX-702 + Luminespib = compound: NC(=O)c1ccc(N(C(N)=O)c2c(F)cccc2F)nc1-c1ccc(F)cc1F [VX-702] + CCNC(=O)c1noc(-c2cc(C(C)C)c(O)cc2O)c1-c1ccc(CN2CCOCC2)cc1 [Luminespib] (partner 0.01 µM)
# Outline: as §1
Cell Line,relative viability (Dabrafenib + OSI-027; first compound 0.003 µM),relative viability (Dabrafenib + OSI-027; first compound 0.009487 µM),relative viability (Dabrafenib + OSI-027; first compound 0.03 µM),relative viability (Dabrafenib + OSI-027; first compound 0.09487 µM),relative viability (Dabrafenib + OSI-027; first compound 0.3 µM),relative viability (Dabrafenib + Linsitinib; first compound 0.003 µM),relative viability (Dabrafenib + Linsitinib; first compound 0.009487 µM),relative viability (Dabrafenib + Linsitinib; first compound 0.03 µM),relative viability (Dabrafenib + Linsitinib; first compound 0.09487 µM),relative viability (Dabrafenib + Linsitinib; first compound 0.3 µM),relative viability (Dabrafenib + Phenformin; first compound 0.003 µM),relative viability (Dabrafenib + Phenformin; first compound 0.009487 µM),relative viability (Dabrafenib + Phenformin; first compound 0.03 µM),relative viability (Dabrafenib + Phenformin; first compound 0.09487 µM),relative viability (Dabrafenib + Phenformin; first compound 0.3 µM),relative viability (VX-702 + Luminespib; first compound 0.02 µM),relative viability (VX-702 + Luminespib; first compound 0.2 µM),relative viability (VX-702 + Luminespib; first compound 0.6325 µM),relative viability (VX-702 + Luminespib; first compound 2 µM)
NCI-H1915,0.572,0.565,0.486,0.37,0.381,1.11,1.14,1.08,1.02,0.964,0.392,0.402,0.266,0.29,0.272,0.84,0.739,0.765,0.916
NCI-H1944,0.356,0.433,0.39,0.505,0.439,1.17,1.28,1.06,1.18,1.14,0.182,0.199,0.188,0.222,0.208,0.73,0.713,0.771,0.718
NCI-H1975,0.657,0.728,0.805,0.535,0.581,1.06,1.04,0.889,0.995,0.905,0.227,0.411,0.411,0.356,0.363,0.198,0.275,0.233,0.246
NCI-H1993,0.468,0.498,0.433,0.565,0.56,0.633,0.772,0.658,0.835,0.721,0.33,0.536,0.482,0.446,0.513,0.645,0.741,0.777,0.818
NCI-H2009,0.423,0.617,0.321,0.249,0.251,1.16,1.09,1.08,1.01,0.861,0.412,0.426,0.341,0.312,0.268,1.13,1.07,1.19,1.3
NCI-H2023,0.325,0.455,0.385,0.355,0.395,0.639,0.667,0.595,0.715,0.792,0.4,0.406,0.419,0.423,0.443,0.692,0.829,0.826,0.974
NCI-H2085,0.355,1.06,0.675,0.616,0.859,0.827,0.857,0.944,0.908,0.845,0.482,0.809,0.592,0.596,0.714,0.479,0.462,0.477,0.41
NCI-H2087,–,0.541,0.682,0.622,0.454,0.979,0.862,0.779,0.805,0.638,–,0.527,0.597,0.395,0.391,0.162,0.141,0.169,0.138
NCI-H2126,0.492,0.787,0.717,0.609,0.954,0.698,0.725,0.681,0.757,0.715,0.521,0.551,0.557,0.601,0.565,0.879,0.918,0.834,0.918
NCI-H2228,–,0.668,0.554,0.52,0.607,0.579,0.839,0.524,0.782,0.81,–,0.326,0.289,0.37,0.258,0.101,0.144,0.145,0.124
NCI-H2347,–,0.514,0.254,0.394,0.416,0.675,0.965,1.08,1.03,0.942,–,0.461,0.229,0.382,0.352,0.446,–,0.909,0.552
NCI-H2405,–,0.696,–,0.548,0.626,–,0.967,–,0.735,0.721,–,0.286,–,0.37,0.371,0.659,0.641,0.799,0.73
NCI-H3122,0.919,0.967,1.07,0.925,1.06,0.943,1.02,1.01,1.01,1.04,0.32,0.349,0.39,0.369,0.37,0.0998,0.0746,0.0992,0.0951
PC-3 [JPC-3],0.629,0.84,0.771,0.705,0.801,0.943,0.977,0.955,0.964,0.978,0.405,0.491,0.465,0.441,0.476,0.636,0.695,0.686,0.668
PC-14,0.438,1.13,0.775,0.804,0.794,0.956,1.03,0.957,0.975,0.984,–,0.493,0.623,0.583,0.83,0.138,0.171,0.158,0.175
RERF-LC-KJ,0.565,0.767,0.615,0.68,0.731,0.876,0.989,0.871,0.83,1.01,0.432,0.435,0.43,0.447,0.546,1.19,1.2,1.12,1.67
SK-LU-1,–,0.366,0.217,0.285,0.227,0.799,1,0.813,0.968,0.833,–,0.571,0.326,0.47,0.373,0.211,0.177,0.2,0.207
SK-MES-1,0.254,0.663,0.552,0.495,0.23,1.07,1.04,1.06,1.04,1.12,0.582,0.757,0.665,0.543,0.508,0.839,0.711,0.673,0.822
